# Measured values from US8993585B2, “Cyclic amine substituted pyrimidinediamines as PKC inhibitors” (Rigel Pharmaceuticals, Inc., priority 2007, dated 2015).
# Test system: Human primary T cells
# Test: IL-2 ELISA, Human Primary T Cell, Anti-CD3+CD28+ (Example 3)
# Assay type: cell-based
# Details: Homo sapiens, T-cell, 24 h, anti-CD3+CD28 stimulation
# Outline: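 IL-2 was read by ELISA after stimulation on wells pre-coated with 1 ug/ml αCD3 and 5 μg/ml αCD28. Before this, 100,000 human primary T cells per well spent 1 h at 37 °C with test compound in Yssel's medium. The counter-screen replaced antibody stimulation with PMA (0.5 ng/ml final) and ionomycin (0.1 uM final).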
row,SMILES,IC50
1,"CCN(CC)C1CCC(Nc2nc(Nc3ccc(N4CCN(S(C)(=O)=O)CC4)c(Cl)c3)ncc2F)CC1 (stereo not shown) [IV-4, N2-[3-Chloro-4-(4-methylsulfonylpiperazino)]phenyl-N4-(4-diethylamino)cyclohexyl-5-fluoro-2,4-pyrimidinediamine]",7050 nM
2,CC1(C)CC(Nc2nc(Nc3cc(Cl)cc(Cl)c3)ncc2F)CC(C)(C)N1CCC(=O)O [Compound I-304],9510 nM
3,CN1C(C)(C)CC(Nc2nc(Nc3cccc(OC(F)(F)F)c3)ncc2C(F)(F)F)CC1(C)C [Compound I-242],8190 nM
4,COc1cc(Nc2ncc(F)c(NC3CC(C)(C)N(CCC(=O)O)C(C)(C)C3)n2)cc(OC)c1 [Compound I-302],25100 nM
5,COc1cc(Nc2ncc(F)c(NC3CC(C)(C)N(C)C(C)(C)C3)n2)cc(OCCn2cccc2)c1 [Compound I-437],170 nM
6,COc1cc(Nc2ncc(F)c(NC3CC(C)(C)NC(C)(C)C3)n2)cc(OCCN2CCOCC2)c1 [Compound I-432],1530 nM
7,CN1C(C)(C)CC(Nc2nc(Nc3ccc4[nH]ncc4c3)ncc2F)CC1(C)C [II-38],827 nM
8,CN1C(C)(C)CC(Nc2nc(Nc3ccc4cnn(C)c4c3)ncc2F)CC1(C)C [II-41],1610 nM
9,Cc1cnc(Nc2ccc3c(c2)OCCO3)nc1NC1CC(C)(C)N(C)C(C)(C)C1 [II-146],3130 nM
10,Cc1nc2ccc(Nc3ncc(F)c(NC4CC(C)(C)N(C)C(C)(C)C4)n3)cc2[nH]1 [II-9],12300 nM

# Now from value to compound:
row,IC50,SMILES
1,7240 nM,COC(=O)CCN1C(C)(C)CC(Nc2nc(Nc3ccc4c(c3)OCCO4)ncc2F)CC1(C)C [II-10]
2,620 nM,Cc1ccc(C)n1-c1cc(Nc2ncc(F)c(NC3CC(C)(C)N(C)C(C)(C)C3)n2)ccc1OCCN1CCOCC1 [Compound I-439]
3,291 nM,CN1C(C)(C)CC(Nc2nc(Nc3ccc4c(c3)OCC(=O)N4CCF)ncc2F)CC1(C)C [II-82]
4,199 nM,CN1C(C)(C)CC(Nc2nc(Nc3ccc4c(c3)OC(C)(C)C(=O)N4CCF)ncc2F)CC1(C)C [II-80]
5,298 nM,CC(C)N1C(=O)C(C)(C)Oc2cc(Nc3ncc(F)c(NC4CC(C)(C)N(C)C(C)(C)C4)n3)ccc21 [II-44]
6,2190 nM,COC(=O)CCN1C(C)(C)CC(Nc2nc(Nc3ccc(OC)c(Cl)c3)ncc2F)CC1(C)C [Compound I-293]
7,5580 nM,CN1C(C)(C)CC(N(Cc2cc3c(cc2Br)OCO3)c2nc(Nc3ccc4c(c3)OCCO4)ncc2F)CC1(C)C [II-90]
8,3450 nM,"CCN(CC)C1CCC(Nc2nc(Nc3ccc(N4CCN(S(C)(=O)=O)CC4)c(C(F)(F)F)c3)ncc2F)CC1 (stereo not shown) [IV-9, N4-(4-Diethylamino)cyclohexyl-5-fluoro-N2-[4-(4-methylsulfonylpiperazino)-3-trifluoromethyl]phenyl-2,4-pyrimidinediamine]"
9,369 nM,CN1C(C)(C)CC(Nc2nc(Nc3ccc4c(c3)OC(C)(C)C(=O)N4CCCF)ncc2F)CC1(C)C [II-78]

# Same assay, conditions: T-cell, anti-CD3+CD28 stimulation, 24 hours
row,SMILES,IC50
1,CN1C(C)(C)CC(N(Cc2ccccc2)c2nc(Nc3ccc4c(c3)OCCO4)ncc2F)CC1(C)C [II-86],1260 nM

# Same assay, conditions: anti-CD3+CD28 stimulation, 24 hours
row,SMILES,IC50
1,COc1ccc(Nc2ncc(F)c(NC3CC(C)(C)N(C)C(C)(C)C3)n2)cc1-c1cnco1 [Compound I-369],624 nM
2,COc1cc(Nc2ncc(C(N)=O)c(NC3CC(C)(C)NC(C)(C)C3)n2)cc(-n2cnnn2)c1 [Compound I-389],5420 nM
3,"COc1cc(Nc2ncc(F)c(NC3CCC(C)(C)N(C)C(C)(C)C3)n2)cc(OC)c1OC (stereo not shown) [Compound I-266, 5-Fluoro-N2-[3,4,5-trimethoxy]phenyl-N4-(1,2,2,7,7-pentamethylazepan-4-yl)-2,4-pyrimidinediamine]",11200 nM
4,CN1C(C)(C)CC(Nc2nc(Nc3ccc(F)c(Cl)c3)ncc2F)CC1(C)C [Compound I-333],586 nM
5,CN1C(C)(C)CC(Nc2nc(Nc3ccc(N4CCOCC4)c(C(F)(F)F)c3)ncc2Cl)CC1(C)C [Compound I-241],361 nM
6,"COc1ccc(Nc2ncc(F)c(NC3CCC(C)(C)N(C)C(C)(C)C3)n2)cc1Cl (stereo not shown) [Compound I-262, 5-Fluoro-N2-[3-chloro-4-methoxy]phenyl-N4-(1,2,2,7,7-pentamethylazepan-4-yl)-2,4-pyrimidinediamine]",14800 nM
7,CN1C(C)(C)CC(Nc2nc(Nc3ccc(N4CCOCC4)c(Cl)c3)ncc2F)CC1(C)C [Compound I-335],563 nM
8,CN1C(C)(C)CC(Nc2nc(Nc3ccc(C#N)cc3)ncc2F)CC1(C)C [Compound I-25],4890 nM
9,COC(=O)N1CCN(c2cc(Nc3ncc(F)c(NC4CC(C)(C)N(C)C(C)(C)C4)n3)ccc2Cl)CC1 [Compound I-43],890 nM
10,"COc1cc(Nc2ncc(F)c(NC3CCN(Cc4ccncc4)CC3)n2)cc(-n2nnnc2C)c1 [III-10, 5-fluoro-N2-[3-methoxy-5-(5-methyl-1H-tetrazol-1-yl)]phenyl-N4-[1-(pyridin-4-yl)methylpiperidin-4-yl]-2,4-pyrimidinediamine]",2220 nM
11,COc1ccc(Nc2ncc(F)c(NC3CC(C)(C)N(C)C(C)(C)C3)n2)cc1F [Compound I-127],1140 nM
12,CC1(C)CC(Nc2nc(Nc3ccc(F)c(-n4cnnn4)c3)ncc2F)CC(C)(C)N1 [Compound I-467],460 nM
13,CN1C(C)(C)CC(Nc2nc(Nc3ccc(C(=O)NCc4cccnc4)cc3)ncc2F)CC1(C)C [Compound I-367],3700 nM
14,CN1CCN(c2ccc(Nc3ncc(Cl)c(NC4CC(C)(C)N(C)C(C)(C)C4)n3)cc2Cl)CC1 [Compound I-36],83 nM
15,CC1(C)CC(Nc2nc(Nc3ccc(N4CCN(S(C)(=O)=O)CC4)c(C(F)(F)F)c3)ncc2F)CC(C)(C)N1 [Compound I-257],423 nM
16,CN1CCN(c2ncc(Nc3ncc(F)c(NC4CC(C)(C)N(C)C(C)(C)C4)n3)cc2Cl)CC1 [Compound I-288],374 nM
17,CN1C(C)(C)CC(Nc2nc(Nc3ccc(-c4cc5ccccc5s4)c(C(F)(F)F)c3)ncc2F)CC1(C)C [Compound I-114],1880 nM
18,CC1(C)CC(Nc2nc(Nc3cc(OCC(F)(F)F)cc(OCC(F)(F)F)c3)ncc2C#N)CC(C)(C)N1 [Compound I-419],270 nM
19,CN1C(C)(C)CC(Nc2nc(Nc3ccc(F)c(-c4cnn(C)c4)c3)ncc2F)CC1(C)C [Compound I-182],675 nM
20,CN1C(C)(C)CC(Nc2nc(Nc3ccc(N4CCN(S(C)(=O)=O)CC4)c(Cl)c3)ncc2F)CC1(C)C [Compound I-61],94 nM
21,CN1C(C)(C)CC(Nc2nc(Nc3ccc(OC(F)(F)F)c(Cl)c3)ncc2F)CC1(C)C [Compound I-334],1010 nM
22,CN1C(C)(C)CC(Nc2nc(Nc3ccc4c(c3)OCO4)ncc2F)CC1(C)C [II-32],864 nM
23,COc1cc(Nc2ncc(Cl)c(NC3CC(C)(C)N(C)C(C)(C)C3)n2)ccc1NC(=O)c1ccco1 [Compound I-352],1070 nM

# Other lines, results leading:
row,IC50,SMILES
1,4660 nM,COc1cc(Nc2ncc(F)c(NC3CC(C)(C)N(C)C(C)(C)C3)n2)ccc1-n1nc(C)cc1C [Compound I-361]
2,1640 nM,CC(C)OC(=O)Nc1ccc(Nc2ncc(F)c(NC3CC(C)(C)N(C)C(C)(C)C3)n2)cc1 [Compound I-137]
3,522 nM,CN1C(C)(C)CC(Nc2nc(Nc3cc(-c4ccncc4)cc(C(F)(F)F)c3)ncc2F)CC1(C)C [Compound I-201]
4,849 nM,CN1C(=O)C(C)(C)S(=O)(=O)c2cc(Nc3ncc(F)c(NC4CC(C)(C)N(C)C(C)(C)C4)n3)ccc21 [II-64]
5,790 nM,CN1C(C)(C)CC(Nc2nc(Nc3ccc(-n4nnnc4-c4ccco4)cc3)ncc2F)CC1(C)C [Compound I-458]
6,1130 nM,CN1C(C)(C)CC(Nc2nc(Nc3ccc(NC(=O)c4ccccc4)cc3)ncc2F)CC1(C)C [Compound I-133]
7,1040 nM,CC1(C)CC(Nc2nc(Nc3cc(OCC(F)(F)F)cc(OCC(F)(F)F)c3)ncc2C(N)=O)CC(C)(C)N1 [Compound I-408]
8,3150 nM,CCNC(=O)Nc1cccc(Nc2ncc(F)c(NC3CC(C)(C)N(C)C(C)(C)C3)n2)c1 [Compound I-138]
9,596 nM,CN1CCN(c2ccc(Nc3ncc([N+](=O)[O-])c(NC4CC(C)(C)N(C)C(C)(C)C4)n3)cc2Cl)CC1 [Compound I-76]
10,2630 nM,CCN1CCN(c2cc(Nc3ncc(F)c(NC4CC(C)(C)N(C)C(C)(C)C4)n3)ccc2Cl)CC1 [Compound I-41]
11,665 nM,CN1C(C)(C)CC(Nc2nc(Nc3ccc(N4CCN(S(C)(=O)=O)CC4)c(Cl)c3)ncc2[N+](=O)[O-])CC1(C)C [Compound I-73]
12,364 nM,CN1CCN(Cc2ccc(Nc3ncc(F)c(NC4CC(C)(C)N(C)C(C)(C)C4)n3)cc2Cl)CC1 [Compound I-57]
13,424 nM,CN1C(C)(C)CC(Nc2nc(Nc3cnc(N4CCN(S(C)(=O)=O)CC4)c(Cl)c3)ncc2F)CC1(C)C [Compound I-289]
14,617 nM,CN1C(C)(C)CC(Nc2nc(Nc3cc(F)c(F)c(F)c3)ncc2F)CC1(C)C [Compound I-347]
15,92.1 nM,COc1cc(Nc2ncc(F)c(NC3CC(C)(C)NC(C)(C)C3)n2)cc(-n2nnnc2C)c1 [Compound I-372]
16,455 nM,Cc1cnc(Nc2ccc(C#N)c(Cl)c2)nc1NC1CC(C)(C)N(C)C(C)(C)C1 [Compound I-28]
17,1550 nM,CNC(=O)COc1cccc(Nc2ncc(F)c(NC3CC(C)(C)N(C)C(C)(C)C3)n2)c1 [Compound I-136]
18,360 nM,CN1C(C)(C)CC(Nc2nc(Nc3ccc(Oc4ncccn4)c(Cl)c3)ncc2F)CC1(C)C [Compound I-338]
19,6150 nM,COCCOc1cc(Nc2ncc(F)c(NC3CC(C)(C)N(C)C(C)(C)C3)n2)ccc1OC [Compound I-413]
20,2290 nM,COc1ccc(Nc2ncc(F)c(NC3CC(C)(C)N(C)C(C)(C)C3)n2)cc1-c1cnn(C)c1 [Compound I-184]
21,445 nM,CC(=O)N1CCN(c2cc(Nc3ncc(F)c(NC4CC(C)(C)N(C)C(C)(C)C4)n3)ccc2C(F)(F)F)CC1 [Compound I-212]
22,615 nM,CN1C(C)(C)CC(Nc2nc(Nc3cc(-c4cccnc4)cc(C(F)(F)F)c3)ncc2F)CC1(C)C [Compound I-202]
23,653 nM,COc1ccc(Nc2ncc(F)c(NC3CC(C)(C)N(C)C(C)(C)C3)n2)cc1-c1ccncc1 [Compound I-193]
24,463 nM,Cc1cnc(Nc2ccc(N3CCN(C)CC3)c(Cl)c2)nc1NC1CC(C)(C)N(C)C(C)(C)C1 [Compound I-29]
